Legend:
[1] = Hydrogen peroxide scavenging (Amplex Red assay, electrochemical techniques, glucosidase/glucose assay); assay type: biochemical; conditions: multiple methodologies
Text: (§1) This generation appears to involve the mechanism described by Wentworth et al in which proteins can utilize water as a catalyst to generate H2O2 (12) Once formed by lysozyme, H2O2 then reacts with intrinsic catalase to form a species of catalase termed Compound I (2) Compound I then acts to generate cyclic-guanosine monophosphate which in turn causes vasodilation. […] These as well as other mechanisms may account for the efficacy of ethyl-gallate treatment in septic shock.

catalase = target: T1, catalase (Homo sapiens, UniProt P04040); assay: Conversion of catalase to compound I (wave-scan spectroscopy); assay type: biochemical
T1 sequence (P04040 2-527 limits assumed): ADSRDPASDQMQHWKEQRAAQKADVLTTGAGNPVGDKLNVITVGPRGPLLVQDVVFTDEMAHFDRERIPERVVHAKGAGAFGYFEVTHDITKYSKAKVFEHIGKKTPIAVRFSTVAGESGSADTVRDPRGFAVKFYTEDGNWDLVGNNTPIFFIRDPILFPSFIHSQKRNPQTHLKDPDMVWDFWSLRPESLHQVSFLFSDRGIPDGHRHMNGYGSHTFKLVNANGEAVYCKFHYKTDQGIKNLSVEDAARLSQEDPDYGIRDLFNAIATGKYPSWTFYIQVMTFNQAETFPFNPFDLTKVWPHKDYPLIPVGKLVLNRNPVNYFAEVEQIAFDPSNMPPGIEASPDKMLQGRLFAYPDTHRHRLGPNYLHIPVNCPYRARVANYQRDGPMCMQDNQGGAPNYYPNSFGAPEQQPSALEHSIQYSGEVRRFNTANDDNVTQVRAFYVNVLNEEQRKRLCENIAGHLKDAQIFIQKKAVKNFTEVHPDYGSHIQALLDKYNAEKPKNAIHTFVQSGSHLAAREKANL
Text: as §1

[2] = system: POX-induced vasodilation in carotid and superior mesenteric arterial preparations; assay: Peroxacetic acid (POX)-induced vasodilation in carotid and superior mesenteric arterial preparations; design: species or system canine
Text: POX is a hydroperoxide (slightly different from the molecule of hydrogen peroxide) that also may be released in septic shock by macrophages and inflammatory cells. […] However, the pathway by which POX caused vasodilation is much different than that caused by lysozyme. […] To some extent, therefore, the improvement in hemodynamics previously observed when ethyl-gallate was infused in our in-vivo study could have also been related to ethyl-gallate's inhibition of the POX pathway in addition to ethyl-gallate's inhibitory-effect on lysozyme mediated pathways.
The only similarity found between lysozyme and POX is that POX's mechanism of action is also independent of the endothelium and nitric oxide formation, since we could not prevent POX's vasodilatory effect by removal of the endothelium or by nitric oxide inhibition. In contrast to lysozyme, POX seems to cause vasodilation is by activation of an enzyme in the vascular tissue called prostaglandin H synthase (PHS). PHS has an important mechanism of action, in that after activation by hydroperoxides (such as POX), it can in turn activate the cyclooxygenase pathway leading to vasodilation.

**Q.** With `CCOC(=O)c1cc(O)c(O)c(O)c1` [ethyl gallate] as the molecule, how does the “scavenging of hydrogen peroxide” value [1] read?
**A.** can scavenge

**Q.** What about the “inhibition of degradation of catalase to compound I” value (catalase) of the same molecule?
**A.** can inhibit

**Q.** And the “inhibition of vasodilation caused by POX” value [2]?
**A.** inhibited
